According to patent publication US10611750B2, “Tetrahydroquinoline compositions as bet bromodomain inhibitors” (FORMA Therapeutics, Inc., priority 2013, dated 2020):

Tests used:
[1] = molecular target: T1, BRD4 Bromodomain 1 (BRD4 BD1) (Homo sapiens, UniProt O60885); assay: AlphaScreen binding assay, BRD4 BD1; settings: His-tagged BRD4 BD1 50 nM, biotinylated H4 (1-21) K5/8/12/16 tetra-acetylated peptide 50 nM, compounds listed under IC50 range headings
T1 construct: 44-168 and BRD4 BD2
Protocol: The binding of Example compounds to BRD4 Bromodomain 1 and BRD4 Bromodomain 2 was assessed using 384-well AlphaScreen assay technology. His-epitope tagged BRD4 BD144-168 and BRD4 BD2333-460 were cloned, expressed, and purified to homogeneity. BRD4 BD1 and BRD4 BD2 binding and inhibition was assessed by monitoring the engagement of biotinylated Histone H4 (1-21) K5/8/12/16 tetra-acetylated peptide with the targets using the AlphaScreen technology (PerkinElmer). Specifically, in a 384-well black or white flat bottom plate, BRD4 BD1 (50 nM final) or BRD4 BD2 (100 nM final) was combined with peptide (50 nM final for BD1 or 100 nM final for BD2) in 50 mM HEPES (pH 7.3), 100 mM NaCl, 0.1% (w/v) BSA, and 0.01% (w/v) Triton X-100 either in the presence of DMSO (final 1.25% DMSO) or compound dilution series in DMSO. Alpha streptavidin donor beads and Nickel-chelate acceptor beads were added to a final concentration of 10 μg/ml each. After a minimum of 1 hour equilibration, plates were read on a BMG PHERAstar FS multi-label reader (BMG LabTech). The half maximal inhibitory concentration (IC50) values were calculated using IDBS Activity Base software with a four parameter logistic curve fit by the equation y=A+((B−A)/(1+((C/x)^D))), wherein A denotes the bottom plateau of the curve, B denotes the top plateau of the curve, C denotes the x value at the middle of the curve, D denotes the slope factor, x denotes the original known x values, and y denotes the original known y values. Data was fitted using the Levenburg Marquardt algorithm.

[2] = system: acute myelocytic leukemia (AML) cell line MV4-11; assay: Oncology cell growth assay (3-day proliferation, CellTiter-Glo); format: cell-based; settings: Homo sapiens, MV4-11, 72 h, MV4-11 cells, 3000 cells/well, compounds listed under IC50 range headings, read-out: MV411 IC50 (gIC50, inhibition of proliferation)
Protocol: The impact of Example compounds on cancer cell proliferation was determined using the acute myelocytic leukemia (AML) cell line MV4-11 (ATCC) in a 3-day proliferation assay. MV4-11 cells were maintained in RPMI 1640 media supplemented with 10% FBS at 37° C. and an atmosphere of 5% CO2. For compound testing, compound dilutions series were prepared in DMSO via a 3-fold serial dilution from 2 mM to 0.001 mM in 384-well white flat bottom plates. The final compound concentrations in the wells were 10, 3.3, 1.1, 0.37, 0.12, 0.041, 0.013 and 0.0045 μM. MV4-11 cells were plated at a density of 3000 cells/well in final volume of 50 μl culture media and incubated for 72 hours. […] Luminescent signal from the CellTiter-Glo assay was read on an EnVision multilabel plate reader (PerkinElmer). Values for the concentration that inhibited cell growth by 50% (gIC50) between the DMSO control and background control (no cells) were determined using IDBS Activity Base software with a four parameter logistic curve fit by the equation y=A+((B−A)/(1+((C/x)^D))), wherein A denotes the bottom plateau of the curve, B denotes the top plateau of the curve, C denotes the x value at the middle of the curve, D denotes the slope factor, x denotes the original known x values, and y denotes the original known y values. Data was fitted using the Levenburg Marquardt algorithm.

Structure (SMILES) | IC50 [1] | IC50 [2]
CC(=O)N1c2c(F)cc(-c3cn(C)nn3)c(OC3CCC3)c2CC[C@@H]1C [I-126, (S)-1-(5-cyclobutoxy-8-fluoro-2-methyl-6-(1-methyl-1H-1,2,3-triazol-4-yl)-3,4-dihydroquinolin-1(2H)-yl)ethanone] | 1000 to 10000 nM | > 1000 nM
C[C@H]1CCc2c(ccc(-c3nnc(N)s3)c2OC2CCC2)N1C(=O)C1CC1 [I-127, (S)-(6-(5-amino-1,3,4-thiadiazol-2-yl)-5-cyclobutoxy-2-methyl-3,4-dihydroquinolin-1(2H)-yl)(cyclopropyl)methanone] | 100 to 1000 nM | < 500 nM
C[C@H]1CCc2c(ccc(-c3c[nH]nn3)c2OC2CCC2)N1C(=O)C1CC1 [I-128, (S)-(5-cyclobutoxy-2-methyl-6-(1H-1,2,3-triazol-4-yl)-3,4-dihydroquinolin-1(2H)-yl)(cyclopropyl)methanone] | 100 to 1000 nM | 500 to 1000 nM
COC(=O)N1c2ccc(-c3csc(C(N)=O)n3)c(OC3CCC3)c2CC[C@@H]1C [I-129, (S)-methyl-6-(2-carbamoylthiazol-4-yl)-5-cyclobutoxy-2-methyl-3,4-dihydroquinoline-1(2H)-carboxylate] | 100 to 1000 nM | < 500 nM
CNC(=O)c1nc(-c2ccc3c(c2OC2CCC2)CC[C@H](C)N3C(=O)OC)cs1 [I-130, (S)-methyl 5-cyclobutoxy-2-methyl-6-(2-(methylcarbamoyl)thiazol-4-yl)-3,4-dihydroquinoline-1(2H)-carboxylate] | 100 to 1000 nM | < 500 nM
COC(=O)N1c2ccc(-c3csc(NC(C)=O)n3)c(OC3CCC3)c2CC[C@@H]1C [I-131, (S)-methyl 6-(2-acetamidothiazol-4-yl)-5-cyclobutoxy-2-methyl-3,4-dihydroquinoline-1(2H)-carboxylate] | 1000 to 10000 nM | 500 to 1000 nM
C[C@H]1CCc2c(ccc(-c3cn(C)nn3)c2Oc2ccccc2C#N)N1C(=O)C1CC1 [I-154, (S)-2-(1-(cyclopropanecarbonyl)-2-methyl-6-(1-methyl-1H-1,2,3-triazol-4-yl)-1,2,3,4-tetrahydroquinolin-5-yloxy)benzonitrile] | 1000 to 10000 nM | < 500 nM
COc1cccc(Oc2c(-c3cnn(C4CCNCC4)c3)ccc3c2CC[C@H](C)N3C(C)=O)c1 [I-156, (S)-1-(5-(3-methoxyphenoxy)-2-methyl-6-(1-(piperidin-4-yl)-1H-pyrazol-4-yl)-3,4-dihydroquinolin-1(2H)-yl)ethanone] | 100 to 1000 nM | < 500 nM
C[C@H]1CCc2c(ccc(-c3cnn(C4CCNCC4)c3)c2Oc2ccccc2Cl)N1C(=O)C1CC1 [I-165, (S)-(5-(2-chlorophenoxy)-2-methyl-6-(1-(piperidin-4-yl)-1H-pyrazol-4-yl)-3,4-dihydroquinolin-1(2H)-yl)(cyclopropyl)methanone] | 100 to 1000 nM | < 500 nM
C[C@H]1CCc2c(ccc(-c3cnn(C4CCNCC4)c3)c2Oc2cccc(F)c2)N1C(=O)C1CC1 [I-171, (S)-cyclopropyl(5-(3-fluorophenoxy)-2-methyl-6-(1-(piperidin-4-yl)-1H-pyrazol-4-yl)-3,4-dihydroquinolin-1(2H)-yl)methanone] | 100 to 1000 nM | < 500 nM
C[C@H]1CCc2c(ccc(-c3cnn(C4CCNCC4)c3)c2Oc2ccc(F)c(F)c2)N1C(=O)C1CC1 [I-172, (S)-cyclopropyl(5-(3,4-difluorophenoxy)-2-methyl-6-(1-(piperidin-4-yl)-1H-pyrazol-4-yl)-3,4-dihydroquinolin-1(2H)-yl)methanone] | 100 to 1000 nM | < 500 nM
C[C@H]1CCc2c(ccc(-c3cnn(C4CNC4)c3)c2Oc2cccc(F)c2)N1C(=O)C1CC1 [I-173, (S)-(6-(1-(azetidin-3-yl)-1H-pyrazol-4-yl)-5-(3-fluorophenoxy)-2-methyl-3,4-dihydroquinolin-1(2H)-yl)(cyclopropyl)methanone] | 100 to 1000 nM | < 500 nM
C[C@H]1CCc2c(ccc(-c3cnn(C4CNC4)c3)c2Oc2ccc(F)c(F)c2)N1C(=O)C1CC1 [I-174, (S)-(6-(1-(azetidin-3-yl)-1H-pyrazol-4-yl)-5-(3,4-difluorophenoxy)-2-methyl-3,4-dihydroquinolin-1(2H)-yl)(cyclopropyl)methanone] | 100 to 1000 nM | < 500 nM
C[C@H]1CCc2c(ccc(-c3cnn(C4CNC4)c3)c2Oc2ccccc2)N1C(=O)C1CC1 [I-175, (S)-(6-(1-(azetidin-3-yl)-1H-pyrazol-4-yl)-2-methyl-5-phenoxy-3,4-dihydroquinolin-1(2H)-yl)(cyclopropyl)methanone] | 100 to 1000 nM | < 500 nM
COC(=O)N1c2ccc(-c3cnn(C4CCNCC4)c3)c(Oc3ccc(F)c(F)c3)c2CC[C@@H]1C [I-176, (S)-methyl 5-(3,4-difluorophenoxy)-2-methyl-6-(1-(piperidin-4-yl)-1H-pyrazol-4-yl)-3,4-dihydroquinoline-1(2H)-carboxylate] | 100 to 1000 nM | < 500 nM
COC(=O)N1c2ccc(-c3cnn(C4CNC4)c3)c(Oc3cccc(Cl)c3)c2CC[C@@H]1C [I-177, (S)-methyl 6-(1-(azetidin-3-yl)-1H-pyrazol-4-yl)-5-(3-chlorophenoxy)-2-methyl-3,4-dihydroquinoline-1(2H)-carboxylate] | 100 to 1000 nM | < 500 nM
C[C@H]1CCc2c(ccc(-c3cnn(C4CNC4)c3)c2Oc2cccc(Cl)c2)N1C(=O)C1CC1 [I-178, (S)-(6-(1-(azetidin-3-yl)-1H-pyrazol-4-yl)-5-(3-chlorophenoxy)-2-methyl-3,4-dihydroquinolin-1 (2H)-yl)(cyclopropyl)methanone] | 100 to 1000 nM | < 500 nM
C[C@H]1CCc2c(ccc(-c3cnn(C4CCNCC4)c3)c2Oc2cccc(Cl)c2)N1C(=O)C1CC1 [I-179, (S)-(5-(3-chlorophenoxy)-2-methyl-6-(1-(piperidin-4-yl)-1H-pyrazol-4-yl)-3,4-dihydroquinolin-1 (2H)-yl)(cyclopropyl)methanone] | 100 to 1000 nM | < 500 nM
COC(=O)N1c2ccc(-c3cnn(C4CNC4)c3)c(Oc3cc(F)cc(F)c3)c2CC[C@@H]1C [I-180, (S)-methyl 6-(1-(azetidin-3-yl)-1H-pyrazol-4-yl)-5-(3,5-difluorophenoxy)-2-methyl-3,4-dihydroquinoline-1(2H)-carboxylate] | 100 to 1000 nM | < 500 nM
C[C@H]1CCc2c(ccc(-c3cnn(C4CNC4)c3)c2Oc2cc(F)cc(F)c2)N1C(=O)C1CC1 [I-181, (S)-(6-(1-(azetidin-3-yl)-1H-pyrazol-4-yl)-5-(3,5-difluorophenoxy)-2-methyl-3,4-dihydroquinolin-1(2H)-yl)(cyclopropyl)methanone] | 100 to 1000 nM | < 500 nM
COC(=O)N1c2ccc(-c3cnn(C4CCNCC4)c3)c(Oc3cc(F)cc(F)c3)c2CC[C@@H]1C [I-182, (S)-methyl 5-(3,5-difluorophenoxy)-2-methyl-6-(1-(piperidin-4-yl)-1H-pyrazol-4-yl)-3,4-dihydroquinoline-1(2H)-carboxylate] | 100 to 1000 nM | < 500 nM
C[C@H]1CCc2c(ccc(-c3cnn(C4CCNCC4)c3)c2Oc2cc(F)cc(F)c2)N1C(=O)C1CC1 [I-183, (S)-cyclopropyl(5-(3,5-difluorophenoxy)-2-methyl-6-(1-(piperidin-4-yl)-1H-pyrazol-4-yl)-3,4-dihydroquinolin-1(2H)-yl)methanone] | 100 to 1000 nM | < 500 nM
C[C@H]1CCc2c(ccc(-c3nnc(N)s3)c2Oc2ccccc2)N1C(=O)C1CC1 [I-184, (S)-(6-(5-amino-1,3,4-thiadiazol-2-yl)-2-methyl-5-phenoxy-3,4-dihydroquinolin-1(2H)-yl)(cyclopropyl)methanone] | 100 to 1000 nM | < 500 nM
